PMC5059489, “Mechanistic evaluation and transcriptional signature of a glutathione S-transferase omega 1 inhibitor” (Nature Communications, 2016)
“And” between values parts separate entries of the source, which are not always exact repeats. Identical values can stand only once.

Legend:
HCT116p53+/+ cell = test: MTT cell proliferation at single concentration; format: cell-based, human
Description: Cell proliferation was assessed by a MTT assay. Cancer cells were seeded in 96-well microtitre plates and, after overnight attachment, treated with GSTO1 inhibitors. After 72 h, MTT solution (3 mg ml^−1; 20 μl) was added to each well and cells were incubated for 3 h at 37 °C. After incubation, media from each well was removed and the dark blue formazan crystals formed by live cells were dissolved in DMSO (150 μl per well). The absorbance intensity was measured at 570 nm on a microplate reader (Molecular Devices, Sunnyvale, CA, USA). Cell viability after 24 h treatment was assessed using ApoTox-Glo triplex assay (Promega) according to the manufacturer's protocol. At least three independent dose–response experiments with each concentration tested in triplicate were performed for each cell line.

GSTO1 [1] = target: T1, GSTO1 (Homo sapiens, UniProt P78417); test: GSTO1 substrate assay (reduction of 4-NPG); settings: for IC50: read-out: GSTO substrate assay IC50, cluster screening tables
T1 sequence (P78417 1-241): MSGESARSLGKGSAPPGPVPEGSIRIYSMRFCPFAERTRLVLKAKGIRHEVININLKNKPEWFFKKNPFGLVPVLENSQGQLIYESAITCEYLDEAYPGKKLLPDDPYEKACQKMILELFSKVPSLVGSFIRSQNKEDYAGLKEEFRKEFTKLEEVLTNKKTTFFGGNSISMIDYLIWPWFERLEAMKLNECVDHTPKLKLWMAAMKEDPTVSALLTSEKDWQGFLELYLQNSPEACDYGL
Description: For activity screening, we adapted a GSTO1 substrate assay that relies on the quantification of the reduction of S-(4-nitrophenacyl)glutathione (4-NPG), a GSTO1-specific substrate[17], using recombinant human GSTO1 in a high-throughput screening format.
Enzyme activity was measured by monitoring the reduction of 4-NPG to 4-nitroacetophenone by GSTO1.

endogenous GSTO1 = target: T2, endogenous GSTO1 (Homo sapiens, UniProt P78417); test: In-gel fluorescence competitive CMFDA binding assay, endogenous GSTO1 in HCT116; settings: 10 µM; inhibition of CMFDA binding, HCT116
T2 sequence (P78417 1-241): T1 sequence (P78417 1-241)
Description: (§1) Primary screening of GSTO inhibitors was based on competitive inhibition of CMFDA binding to endogenous GSTO. Briefly, HCT116^p53+/+ cells (4 × 10^4 per well) were coated in a 12-well plate. […] Cells were then washed with PBS and lysed using Cell Lytic M buffer (Sigma). […] Gels were immediately scanned on a Typhoon variable mode imager (Amersham Bioscience). Quantification of fluorescent band intensity was done using Image Quant 5.2 software.

GSTO1 [2] = target: T1, GSTO1; test: In-gel fluorescence competitive CMFDA binding assay, recombinant GSTO1; settings: inhibition of CMFDA binding
Description: as §1

Row | SMILES | % Inhibition of HCT116p53+/+ cell proliferation at 10 µM (HCT116p53+/+ cell) | GSTO substrate assay % Inhibition at 10 µM (GSTO1 [1]) [%] | IC50 (GSTO1 [1]) [µM] | GSTO binding assay (% Inhibition at 10 µM) Endogenous (endogenous GSTO1) [%] | GSTO binding assay (% Inhibition at 10 µM) Recombinant (GSTO1 [2]) [%]
1 | CCN(CC)S(=O)(=O)c1ccc(CNC(=O)CCl)cc1 [C3-2] | 55.3% and 49.6% | 86.4 | 1.48 | 63.6 | 63.3
2 | O=C(CCl)Nc1ccccc1N1CCCC1=O [C1-18] | 41.5% and 41.7% | 3.7 | – | 54.4 | 6.4
3 | CC1Cc2cc(S(N)(=O)=O)ccc2N1C(=O)CCl (centres unmarked) [C5-20] | 80.5% and 89.8% | 61.0 | 2.29 | – | 68.1
4 | CC(C)(C)c1ccc(C(=O)NNC(=O)CCl)cc1 [C3-20] | 29.1% | 42.7 | – | 32.9 | 3.9
5 | CC(NC(=O)CCl)c1ccc2c(c1)OCO2 (centres unmarked) [C3-7] | 73.6% | 12.5 | – | 12.6 | 12.3
6 | CCN(Cc1ccc2c(c1)OCO2)C(=O)CCl [C4-11] | 2.8% | 103.4 | 2.36 | 51.8 | 60.0
7 | O=C(CCl)N1N=C(c2cccs2)CC1c1ccco1 (centres unmarked) [C5-22] | 41.2% | 1.0 | – | 22.7 | 68.6
8 | O=C(CCl)N1CCN(c2ccccc2F)CC1 [C5-3] | 28.2% | 59.8 | – | 61.5 | 9.4
9 | O=C(CCl)N(NC(=O)P(=O)(N1CCOCC1)N1CCOCC1)c1ccc(Br)cc1 [C4-20] | 10.4% and 6.3% | -7.3 | – | 27.6 | 9.3
10 | Cc1c(NC(=O)c2c(NC(=O)CCl)sc3c2CCCC3)c(=O)n(-c2ccccc2)n1C [C2-19] | 52.7% and 40.5% | 1.2 | – | 58.6 | 51.8
11 | O=C(CCl)N(Cc1ccccc1)Cc1ccco1 [C4-15] | -6.8% and -5.5% | 98.2 | – | 34.0 | 65.8
12 | O=C(CCl)N1CCN(c2ncc(C(F)(F)F)cc2Cl)CC1 [C5-6] | 56.2% | 94.6 | 0.191 | – | 70.2
13 | O=C(CCl)Nc1cc(C2CC2)nn1-c1ccccc1 [C2-5] | -2.7% and -8.6% | 4.4 | – | 69.4 | 64.1
14 | CN(CC(=O)Nc1c(Cl)cccc1Cl)C(=O)CCl [C4-7] | 81.8% | 1.8 | – | 53.0 | -36.4
15 | O=C(CCl)N1CCN(S(=O)(=O)C=Cc2ccccc2)CC1 [C5-16] | 48.3% and 46.5% | 2.4 | – | 61.7 | 82.7
16 | Cc1ccc(C)c(-n2nc(C)cc2NC(=O)CCl)c1 [C2-4] | 81.4% and 84.4% | 0.5 | – | 51.3 | 35.8
17 | CC(C)C(NC(=O)CCl)c1ccc2c(c1)OCCO2 (centres unmarked) [C3-8] | 91.2% and 77.9% | 16.5 | – | 33.4 | -4.9
18 | Cc1ccc(C)c(S(=O)(=O)N2CCN(C(=O)CCl)CC2)c1 [C5-12] | 7.3% | 84.9 | – | 47.1 | 66.0

Row | SMILES | % Inhibition of HCT116p53+/+ cell proliferation at 10 µM (HCT116p53+/+ cell) | GSTO substrate assay % Inhibition at 10 µM (GSTO1 [1]) [%] | IC50 (GSTO1 [1]) [µM] | GSTO binding assay (% Inhibition at 10 µM) Endogenous (endogenous GSTO1) [%] | GSTO binding assay (% Inhibition at 10 µM) Recombinant (GSTO1 [2]) [%]
19 | C=CCSc1ccccc1NC(=O)CCl [C1-5] | -3.8% and -2.6% | 96.3 | – | 22.9 | 52.9
20 | CC(NC(=O)CCl)c1cc2ccccc2o1 (centres unmarked) [C3-29] | 89.7% | 73.0 | – | 88.9 | 46.7
21 | O=C(CCl)Nc1cc2c(cc1Cl)OCCCO2 [C1-11] | 63.4% and 65.6% | 77.7 | 1.16 | 58.6 | 55.2
22 | C=CCOc1ccccc1CN(C(=O)CCl)c1ccc2c(c1)OCCO2 [C4-17] | 29% | 70.2 | 0.902 | – | 69.3
23 | Cc1cc(S(=O)(=O)N(C)C)cc(NC(=O)CCl)c1C [C1-26] | 13.2% | 31.1 | – | 48.9 | 51.4
24 | O=C(CCl)N1CCc2cc([N+](=O)[O-])ccc21 [C5-19] | 84.6% and 75.2% | 40.0 | – | – | 72.2
25 | O=C(CCl)NNC(=O)c1cc2c(s1)CCCC2 [C3-23] | 3.7% | -3.5 | – | -11.7 | -4.1
26 | CC(NC(=O)CCl)C12CC3CC(CC(C3)C1)C2 (centres unmarked) [C3-33] | 24.7% and 38.5% | 36.3 | – | 55.3 | 16.6
27 | CC(=O)c1cc2c(cc1NC(=O)CCl)OCO2 [C1-9] | -1.2% | 12.5 | – | 39.3 | 56.5
28 | O=C(CCl)N1CCN(S(=O)(=O)c2ccc3c(c2)OCCO3)CC1 [C5-15] | 82.7% and 87.3% | 63.7 | 0.262 | – | 62.4
29 | Cc1ccc(-c2oc(NC(=O)CCl)c(C#N)c2-c2ccc(C)cc2)cc1 [C2-28] | 88.5% | -2.8 | – | – | 59.5
30 | Cc1cc(C(C)(C)C)cc(C)c1NC(=O)CCl [C1-1] | 14% and 21.3% | 16.2 | – | – | 17.7
31 | COc1cc(OC)c(OC)cc1CNC(=O)CCl [C3-4] | 16% and 17.5% | 31.6 | – | – | -2.6
32 | NC(=O)CCN(C(=O)CCl)c1ccccc1 [C4-3] | 70.6% and 71.9% | 32.3 | – | – | -1.7
33 | CN(C1CCCCC1)S(=O)(=O)c1ccc(NC(=O)CCl)cc1 [C1-25] | 11.3% and 21.7% | 9.8 | – | – | 70.3
34 | CN(C)S(=O)(=O)c1ccc2c(c1)CCCN2C(=O)CCl [C5-18] | 91.6% and 91.4% | 72.7 | 0.164 | – | 69.7
35 | O=C(CCl)Nc1nc(-c2c[nH]c3ccccc23)cs1 [C2-25] | 0.5% and 4.3% | 3.7 | – | – | 75.7
36 | O=C(CCl)N1CCC(Cc2ccccc2)CC1 [C5-1] | 93.4% | 83.5 | 0.048 | – | 67.5
